Source: BindingDB's records for patent US11339122 (University of Pittsburgh, 2022)

Molecular target: Transient receptor potential cation channel subfamily V member 1 (Homo sapiens, UniProt Q8NER1)
Assay: RTX Competition Binding Assay.
Method: Binding studies with [3H]RTX were carried out as follows. The binding assay mixtures were prepared in 1.5 ml centrifuge tubes and consisted of a fixed concentration (approximately 2 nM) of [3H]RTX (37 Ci/mmol specific activity, PerkinElmer Life Sciences), various concentrations of competing ligands, and […] of membranes from induced CHO-hTRPV1 expressing cells (approximately 1-3×10^6 cells) in Dulbecco's phosphate buffered saline (DPBS, with Ca2+ & Mg2+) for a total volume of 350 μl. The assay mix contained bovine serum albumin at a final concentration of 0.25 mg/ml (Cohn fraction V; Sigma-Aldrich, St. Louis, Mo.). In each set of experiments, nonspecific binding were determined in the presence of 200 nM non-radioactive RTX. The binding reaction was initiated by placing the assay mixture in a 37° C. shaking water bath for 60 minutes ([…]). The assay mixture was then chilled on ice for 2-3 min before adding 100 μl of α1-acid glycoprotein (2 mg/ml; Sigma-Aldrich) and mixed thoroughly. The tubes were kept on ice for an additional 10 min. The bound and free ligands were then separated by centrifugation (12,200 rpm for 15 minutes) in a Beckman Coulter centrifuge Allegra 21R. 200 μl of supernatant was collected for determination of free ligand. The remainder was removed by aspiration.

Chain of Transient receptor potential cation channel subfamily V member 1 (Q8NER1 whole entry): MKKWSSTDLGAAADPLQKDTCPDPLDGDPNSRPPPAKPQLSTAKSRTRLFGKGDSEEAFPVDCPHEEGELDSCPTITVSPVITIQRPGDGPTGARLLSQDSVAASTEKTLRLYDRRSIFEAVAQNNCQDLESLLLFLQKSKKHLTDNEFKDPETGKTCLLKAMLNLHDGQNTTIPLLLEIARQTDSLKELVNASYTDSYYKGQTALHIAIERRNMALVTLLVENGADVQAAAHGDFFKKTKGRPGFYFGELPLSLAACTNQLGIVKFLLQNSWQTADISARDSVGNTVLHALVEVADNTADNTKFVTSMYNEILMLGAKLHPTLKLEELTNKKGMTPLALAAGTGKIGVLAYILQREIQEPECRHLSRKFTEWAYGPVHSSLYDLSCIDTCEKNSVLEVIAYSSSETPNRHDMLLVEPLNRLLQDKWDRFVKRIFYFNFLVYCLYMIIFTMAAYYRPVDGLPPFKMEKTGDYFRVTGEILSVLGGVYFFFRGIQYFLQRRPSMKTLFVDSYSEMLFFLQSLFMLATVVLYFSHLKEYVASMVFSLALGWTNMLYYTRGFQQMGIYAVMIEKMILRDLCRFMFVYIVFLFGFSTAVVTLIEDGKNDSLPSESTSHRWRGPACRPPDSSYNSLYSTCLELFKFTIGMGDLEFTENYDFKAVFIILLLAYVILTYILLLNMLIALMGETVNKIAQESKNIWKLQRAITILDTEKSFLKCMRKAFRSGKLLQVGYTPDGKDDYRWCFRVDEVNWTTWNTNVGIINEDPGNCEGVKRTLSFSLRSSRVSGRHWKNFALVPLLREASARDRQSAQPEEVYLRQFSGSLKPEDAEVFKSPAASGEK

- Ki: 2840 nM
Structure (SMILES): CCOC(=O)c1ccc(NC(=O)Nc2ccc(F)cc2)cc1 [US11339122, Compound 5b]
